{"source": "paper PMC7181695", "about": "“Targeting the interaction between RNA-binding protein HuR and FOXQ1 suppresses breast cancer invasion and metastasis” (Communications Biology, 2020)", "target": "T1, HuR (Hu antigen R, ELAVL1) (Homo sapiens, UniProt Q15717)", "T1 construct": "full-length HuR (FP, SPR); HuR RRM1/2 (AlphaLISA, SPR)", "T1 sequence (Q15717 2-326)": "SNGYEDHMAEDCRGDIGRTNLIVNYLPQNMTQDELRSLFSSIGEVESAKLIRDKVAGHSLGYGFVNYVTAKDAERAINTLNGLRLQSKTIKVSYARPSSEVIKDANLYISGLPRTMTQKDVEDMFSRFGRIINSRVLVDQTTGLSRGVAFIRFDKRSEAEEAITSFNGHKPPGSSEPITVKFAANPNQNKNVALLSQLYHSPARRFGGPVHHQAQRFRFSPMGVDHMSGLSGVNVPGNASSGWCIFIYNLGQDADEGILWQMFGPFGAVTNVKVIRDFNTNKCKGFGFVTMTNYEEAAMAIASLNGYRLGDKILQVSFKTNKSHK", "experiment": "FP competition with fluorescein-labeled ARE-Msi1 RNA; SPR direct binding to immobilized HuR; AlphaLISA (Ki […]); CETSA in MDA-MB-231 cells"}
{"smiles": "CC(C)(C)c1ccc(S(=O)(=O)Nc2ccc3sc(/C=C/C(=O)NO)cc3c2)cc1", "note": "[KH-3, (E)-3-(5-((4-(tert-Butyl)phenyl)sulfonamido)benzo[b]thiophen-2-yl)-N-hydroxyacrylamide]", "values": [{"measurement": "Ki", "result": 0.83, "unit": "µM"}]}
